Results published in DBAASP.
≈ marks a conversion by molar mass, not a printed value. Blank lines part the entries; values can stand above or below the molecule they belong to.

Legend:
Test in all cases: ≥ marks a high value that may be exact or a test limit, other limits are often not marked, values filed in µg/mL are converted to µM
[1] = tested on: Candida albicans ATCC 10231
[2] = tested on: Enterococcus faecalis PCM 2673
[3] = tested on: Escherichia coli ATCC 25922
[4] = tested on: Pseudomonas aeruginosa ATCC 9027
[5] = tested on: Staphylococcus aureus ATCC 25923
[6] = tested on: Bacillus subtilis DSM 347
[7] = tested on: Escherichia coli DSM 1116
[8] = tested on: Franconibacter helveticus DSM 18390
[9] = tested on: Staphylococcus xylosus DSM 20287
[10] = tested on: Acinetobacter baumannii ATCC 17978
[11] = tested on: Bacillus megaterium ATCC 10778
[12] = tested on: Bacillus subtilis ATCC 6633
Candida albicans MDM8 = tested on: Candida albicans MDM8
[13] = tested on: Candida tropicalis IOC 4560
[14] = tested on: Enterobacter cloacae beta-12
[15] = tested on: Escherichia coli NCTC 12923
Escherichia coli SBS 363 = tested on: Escherichia coli SBS 363
[16] = tested on: Klebsiella pneumoniae NCTC 13368
Micrococcus luteus A270 = tested on: Micrococcus luteus A270
[17] = tested on: Pseudomonas aeruginosa NCIB 10421
[18] = tested on: Pseudomonas aeruginosa NCTC 13437
[19] = tested on: Pseudomonas aeruginosa PAO1
[20] = tested on: Serratia marcescens ATCC 4112
[21] = tested on: Staphylococcus aureus ATCC 29213
[22] = tested on: Staphylococcus aureus ATCC 9144
[23] = tested on: Staphylococcus aureus USA 300
Escherichia coli UB1005 = tested on: Escherichia coli UB1005
[24] = tested on: Salmonella enterica subsp. enterica serovar Pullorum C79-13
[25] = tested on: Salmonella enterica subsp. enterica serovar Typhi CMCC 50071
[26] = tested on: Salmonella enterica subsp. enterica serovar Typhimurium ATCC 14028
[27] = tested on: Salmonella enterica subsp. enterica serovar Typhimurium C77-31
[28] = tested on: Staphylococcus epidermidis ATCC 12228
[29] = tested on: Escherichia coli ATCC 8739
[30] = tested on: Staphylococcus aureus HNCMO 112011
[31] = tested on: Enterococcus faecalis ATCC 2912
[32] = tested on: Pseudomonas aeruginosa ATCC 15442
[33] = tested on: Staphylococcus aureus ATCC 6538
[34] = tested on: Staphylococcus hominis ATCC 27844
[35] = tested on: Acinetobacter baumannii ATCC 19606
[36] = tested on: Candida albicans ATCC 90028
[37] = tested on: Candida parapsilosis ATCC 22019
[38] = tested on: Enterococcus faecalis ATCC 29212
[39] = tested on: Klebsiella pneumoniae ATCC 13883
[40] = tested on: Listeria ivanovii Li 4pVS2
[41] = tested on: Pseudomonas aeruginosa ATCC 27853
[42] = tested on: Streptococcus pyogenes ATCC 19615

SMILES: CC[C@H](C)[C@H](NC(=O)[C@H](CCCCN)NC(=O)[C@H](CCCCN)NC(=O)[C@@H](NC(=O)[C@@H](NC(=O)[C@H](CC(=O)O)NC(=O)[C@H](Cc1ccccc1)NC(=O)[C@H](C)NC(=O)CN)[C@@H](C)CC)[C@@H](C)CC)C(=O)N[C@@H](C)C(=O)N[C@@H](CCC(=O)O)C(=O)N[C@@H](CO)C(=O)N[C@@H](Cc1ccccc1)C(N)=O [GAFDIIKKIAESF]
MIC [1]: 178 µM (≈ 256 µg/mL) | MIC [2]: ≥ 356 µM | MIC [3]: 178 µM (≈ 256 µg/mL) | MIC [4]: 356 µM (≈ 512 µg/mL) | MIC [5]: > 356 µM

SMILES: CC[C@H](C)[C@H](N)C(=O)N[C@@H](CC(C)C)C(=O)N[C@@H](CCCCN)C(=O)N[C@@H](CCCCN)C(=O)N[C@H](C(=O)N[C@@H](Cc1c[nH]c2ccccc12)C(=O)N[C@@H](CCC(=O)O)C(=O)NCC(=O)N[C@H](C(=O)N[C@@H](CCCCN)C(=O)N[C@@H](CO)C(=O)N[C@@H](CC(C)C)C(=O)N[C@@H](Cc1ccccc1)C(N)=O)[C@@H](C)CC)[C@@H](C)CC [ILKKIWEGIKSLF]
MIC [10]: 2.54 µM (≈ 4 µg/mL) | MIC [11]: 0.78 µM (≈ 1.23 µg/mL) | MIC [12]: 0.78 µM (≈ 1.23 µg/mL) | MIC (Candida albicans MDM8): 1.56 µM (≈ 2.46 µg/mL) | MIC [13]: 0.78 µM (≈ 1.23 µg/mL) | MIC [14]: 3.13 µM (≈ 4.93 µg/mL) | MIC [15]: 5.08 µM (≈ 8 µg/mL) | MIC (Escherichia coli SBS 363): 0.78 µM (≈ 1.23 µg/mL) | MIC [16]: 10.2 µM (≈ 16 µg/mL) | MIC (Micrococcus luteus A270): 0.78 µM (≈ 1.23 µg/mL) | MIC [17]: 6.25 µM (≈ 9.84 µg/mL) | MIC [18]: ≥ 40.6 µM | MIC [19]: > 81.3 µM | MIC [20]: 0.36 µM (≈ 0.567 µg/mL) | MIC [21]: 1.56 µM (≈ 2.46 µg/mL) | MIC [22]: 5.08 µM (≈ 8 µg/mL) | MIC [23]: 10.2 µM (≈ 16 µg/mL)

SMILES: CSCC[C@H](NC(=O)[C@H](CCCN=C(N)N)NC(=O)[C@H](Cc1c[nH]c2ccccc12)NC(=O)[C@H](CCC(N)=O)NC(=O)[C@H](Cc1c[nH]c2ccccc12)NC(=O)[C@H](CCCN=C(N)N)NC(=O)[C@H](CCCN=C(N)N)NC(=O)[C@H](CS)NC(=O)[C@@H](N)CCCCN)C(=O)N[C@@H](CCCCN)C(=O)N[C@@H](CCCCN)C(N)=O [KCRRWQWRMKK]
MIC (Escherichia coli UB1005): ≥ 128 µM | MIC [24]: ≥ 128 µM | MIC [25]: ≥ 128 µM | MIC [26]: > 128 µM | MIC [27]: ≥ 128 µM | MIC [5]: 128 µM (≈ 205 µg/mL) | MIC [21]: > 128 µM | MIC [28]: > 128 µM

SMILES: CC(C)C[C@H](NC(=O)[C@@H]1CCCN1C(=O)[C@H](CCCN=C(N)N)NC(=O)[C@H](CCCN=C(N)N)NC(=O)[C@H](CS)NC(=O)[C@H](CCC(N)=O)NC(=O)[C@@H](N)CCC(N)=O)C(=O)N[C@@H](Cc1ccc(O)cc1)C(=O)N[C@@H](CS)C(=O)N[C@@H](CCCN=C(N)N)C(=O)N[C@@H](CCCN=C(N)N)C(=O)N[C@@H](CCCN=C(N)N)C(=O)O [QQCRRPLYCRRR]
MIC [10]: 25 µM (≈ 40.9 µg/mL) | MIC [29]: 25 µM (≈ 40.9 µg/mL) | MIC [30]: 25 µM (≈ 40.9 µg/mL)

Continued, values first:

MIC [6]: 1.46 µM (≈ 2.83 µg/mL) | MIC [7]: 4.13 µM (≈ 8 µg/mL) | MIC [8]: 2.92 µM (≈ 5.65 µg/mL) | MIC [9]: 2.07 µM (≈ 4 µg/mL)
SMILES: CC[C@H](C)[C@H](N)C(=O)N[C@@H](C)C(=O)NCC(=O)N[C@@H](CCCCN)C(=O)N[C@H](C(=O)N[C@@H](C)C(=O)N[C@@H](CCCCN)C(=O)N[C@H](C(=O)N[C@@H](C)C(=O)NCC(=O)N[C@@H](CCCCN)C(=O)N[C@H](C(=O)N[C@@H](C)C(=O)N[C@@H](CCCCN)C(=O)N[C@H](C(=O)N[C@@H](C)C(=O)NCC(=O)N[C@@H](CCCCN)C(=O)N[C@H](C(=O)N[C@@H](C)C(N)=O)[C@@H](C)CC)[C@@H](C)CC)[C@@H](C)CC)[C@@H](C)CC)[C@@H](C)CC [IAGKIAKIAGKIAKIAGKIA]

MIC [1]: 3.2 µM (≈ 4.65 µg/mL) | MIC [31]: ≥ 40 µM | MIC [3]: 13 µM (≈ 18.9 µg/mL) | MIC [32]: 13 µM (≈ 18.9 µg/mL) | MIC [33]: 3.2 µM (≈ 4.65 µg/mL) | MIC [34]: ≥ 40 µM
SMILES: CSCC[C@H](NC(=O)[C@H](CCC(N)=O)NC(=O)[C@H](CO)NC(=O)CNC(=O)[C@H](CCCCN)NC(=O)[C@@H](N)CCCN=C(N)N)C(=O)NCC(=O)N[C@@H](CCCCN)C(=O)N[C@@H](CCCCN)C(=O)N[C@@H](CS)C(=O)N[C@@H](CCC(=O)O)C(=O)N[C@@H](CS)C(=O)N1CCC[C@H]1C(=O)O [RKGSQMGKKCECP]

MIC [35]: 6.25 µM (≈ 16.5 µg/mL) | MIC [36]: ≥ 200 µM | MIC [37]: ≥ 50 µM | MIC [38]: > 100 µM | MIC [3]: 6.25 µM (≈ 16.5 µg/mL) | MIC [39]: ≥ 80 µM | MIC [40]: ≥ 50 µM | MIC [41]: 25 µM (≈ 66.1 µg/mL) | MIC [5]: 100 µM (≈ 264 µg/mL) | MIC [42]: ≥ 50 µM
SMILES: CC[C@H](C)[C@H](NC(=O)[C@H](CCCN=C(N)N)NC(=O)[C@H](Cc1ccc(O)cc1)NC(=O)CNC(=O)[C@H](Cc1ccc(O)cc1)NC(=O)[C@H](CCCN=C(N)N)NC(=O)[C@H](CC(C)C)NC(=O)[C@H](C)NC(=O)[C@H](CCC(N)=O)NC(=O)[C@H](CCC(=O)O)NC(=O)[C@@H](NC(=O)[C@H](CCC(N)=O)NC(=O)[C@H](CCCN=C(N)N)NC(=O)[C@H](CCSC)NC(=O)[C@H](Cc1ccc(O)cc1)NC(=O)[C@H](CCC(N)=O)NC(=O)[C@@H](N)CCCN=C(N)N)[C@@H](C)CC)C(=O)N[C@@H](CO)C(=O)N[C@@H](CCCN=C(N)N)C(=O)N[C@@H](CCCN=C(N)N)C(N)=O [RQYMRQIEQALRYGYRISRR]
